This is an account of results in US20220119868A1, “PROFILING RNA-SMALL MOLECULE BINDING SITES WITH OLIGONUCLEOTIDES” (priority 2018, published 2022).

Test [1] concerns HCV replication, SGR-Neo-RLuc-JFH1-2A replicon cells established in Huh-7.5. The test is described as follows: HCV replication in subgenomic replicon cells (Renilla luciferase). The settings on record: Hepatitis C virus, Huh7.5; replicon cells, luciferase activity; read-out: IC50, inhibition of HCV replication. The test is classed as cell-based, Hepatitis C virus. An excerpt:
(§1) The compounds bind their cognate loops in the 3′ UTR with mid-nanomolar to low micromolar affinities (Table 1). It was next determined if the identified compounds could inhibit HCV RNA replication in HCV subgenomic replicon cells, in particular SGR-Neo-RLuc-JFH1-2A replicon cells established in Huh-7.5 (human hepatoma cells). In this system, an autonomously replicating viral RNA replicon is used to monitor efficiently RNA replication of the virus in the absence of spread of viral RNA to adjacent cells. This is achieved by replacing the structural proteins required to assembly progeny virions with a drug selectable marker (Neo) and a Renilla luciferase (RLuc) reporter gene. Once this replicon has been delivered to human hepatoma cells and selection with G418 (conferred by Neo selectable marker) has occurred, the expression and Renilla luciferase activity is directly correlated with the level of HCV replication^57.
They were therefore assayed for their ability to inhibit HCV replication using this replicon system, with DMSO vehicle and 2′-C-methyladenosine^17 triphosphate serving as negative and positive controls, respectively.
(§2) Effect of compounds on HCV replication. […] Cytotoxicity assays. […] Oligonucleotide profiling of target engagement in vitro. […] Primers can be found in Table 4. […] Inhibition of kinases. […] . Figure S7C).

Test [2] has as its system RNA motif libraries A-E. Nature of the test: 2DCS: array-immobilized small molecules incubated with RNA motif libraries. Particulars: libraries C-E. The test is classed as binding. The text has this: (§3) Identification of RNA-binding Small Molecules by 2DCS. […] We have previously validated the secondary structures formed by members of RNA libraries by enzymatic mapping^8, 12, 34. These discrete RNA motifs were selected because they are present in cellular RNAs. Due to the library-versus-library nature of these studies, they represent the largest screens completed to date, probing >52,000,000 interactions. Of the 1,987 compounds probed, 239 bound RNA (12.0%).
A final screen was then completed in which the 91 array-immobilized compounds were incubated with all five RNA motif libraries separately in the presence of oligonucleotide competitors F-J, d(AT)11 and d(GC)11. Oligonucleotides F-J mimic regions common to all library members, restricting binding to the randomized regions. (Note: oligonucleotide J was not used for hairpin selections.) After rigorous washing to remove unbound RNAs, bound RNAs were harvested and identified by RNA-seq. […]
Identification of Privileged RNA Space by RNA-Seq. […] RNA-seq data were then analyzed by High Throughput Structure-Activity Relationships Through Sequencing (HiT-StARTS)^12 to identify the privileged RNA motifs that bind each small molecule. […] Next, the most privileged RNA motif binders and the most discriminated against RNA motifs (non-binders) for each compound selection was analyzed by generating LOGOS from the highest and lowest 0.5% of Zobs scores^37. […]

In test [3] the test system is RNA library A (5-nucleotide hairpin library). Nature of the test: 2DCS selection with LOGOS analysis. The class given is binding. The settings on record: 5-nucleotide hairpins.
From the text: as §3
A final screen was then completed in which the 91 array-immobilized compounds were incubated with all five RNA motif libraries separately in the presence of oligonucleotide competitors F-J, d(AT)11 and d(GC)11. Oligonucleotides F-J mimic regions common to all library members, restricting binding to the randomized regions. (Note: oligonucleotide J was not used for hairpin selections.) After rigorous washing to remove unbound RNAs, bound RNAs were harvested and identified by RNA-seq. By completing selections under conditions of high oligonucleotides stringency (by use of excess competitor oligonucleotides), these studies identified small molecules that bound RNA motifs avidly. A challenge in the small molecule RNA-targeting area has been the development and identification of selective interactions between small molecules and RNAs. In myriad studies, 2DCS has defined selective RNA motif-small molecule interactions with varied affinities^11, 12, 35, 36.
Identification of Privileged RNA Space by RNA-Seq. Using RNA-seq, a large sequencing dataset was obtained for each pool of RNAs that were specifically bound to each small molecule. RNA libraries A, B, C, D, and E had at least 12.1-fold (average: 133.1±111.8), 6.7-fold (average: 80.8±78.7), 9.9-fold (average: 103.5±110.6), 7.2-fold (average: 75.7±65.6), and 6.0-fold (average: 36.3±31.6) coverage for each small molecule selection, respectively, as compared to the number of unique sequences within the corresponding RNA library. It was previously shown that at least 6-fold coverage is required to generate binding landscape maps^12. RNA-seq data were then analyzed by High Throughput Structure-Activity Relationships Through Sequencing (HiT-StARTS)^12 to identify the privileged RNA motifs that bind each small molecule. Briefly, the frequency of occurrence of a selected RNA was compared to the frequency of occurrence of the same RNA from RNA-seq analysis of the starting RNA library to account for biases arising during transcription and RT-PCR. This pooled population comparison affords the parameter Zobs, a metric of statistical confidence. A large, positive Zobs indicates a strong preference for binding the motif while a negative Zobs indicates a strong preference against binding the motif. A Fitness Score is assigned by normalizing the Zobs values to the most statistically significant small molecule-RNA interaction to 100. […] Structure-Activity Relationships (SAR). Next, the most privileged RNA motif binders and the most discriminated against RNA motifs (non-binders) for each compound selection was analyzed by generating LOGOS from the highest and lowest 0.5% of Zobs scores^37. By comparing the LOGOS for related compounds, or DiffLogos, SAR can be defined. Indeed, various hit compounds differ by a single functional group, including compounds A and B (FIG. 5). […] In contrast, the RNA motifs most hindered from binding compounds 1 and 2 (discriminated against) are quite different (FIG. 5B).
Four compounds that share an indolylpyrimidine-2,4-diamine core bound members of A (5-nucleotide hairpin library).
Oligonucleotides. All DNA oligonucleotides were purchased from Integrated DNA Technologies, Inc. (IDT) and used without further purification. RNA oligonucleotide competitors were purchased from Dharmacon and de-protected according to the manufacturer's standard procedure. All oligonucleotide solutions were prepared with NANOpure water. […]

The target of test [4] is HCV RNA motif 5′UAG3′/3′A_C5′ (SL I). The test is described as follows: In solution, fluorescence-based binding affinity assay, HCV RNA motifs. Also noted: species or system Hepatitis C virus.
From the text: as §1
(§4) where n1 is the size of Population 1 (number of sequencing reads for a given RNA from RNA-seq analysis of the selected library), n2 is the size of Population 2 (number of sequencing reads for the same RNA from RNA-seq analysis of the starting library), p1 is the observed proportion of Population 1 (the number of reads for a given RNA from selected library/total number of reads), and p2 is the observed proportion for Population 2 (the number of reads for the same RNA in the starting library/total number of reads). Generation of Logos and DiffLogos: Zobs corresponding to the highest (enriched) 0.5% and lowest (discriminated against) 0.5% scores were analyzed to generate consensus sequences, or Logos. The resulting list of sequences were converted to position weight matrix (PWM) lists for each compound. “Enriched” and “discriminated” sequences were kept separate using JMP®, Version <13.2.1>. SAS Institute Inc., Cary, N.C., 1989-2007. The R package Difflogo,^16 which is part of Bioconductor, was utilized to create the sequence logos from PWM lists for each compound and visually compare the differences between them. Binding Affinity Measurements. Dissociation constants were determined using an in solution, fluorescence-based assay. […] Serial dilutions (1:2) of the small molecule were then completed in 1× Assay Buffer supplemented with 1 mM MgCl2. The solutions were incubated for 30 min at room temperature, transferred to a 96-well plate, and fluorescence intensity measured on a BioTek-FLx800 plate reader. The change in fluorescence intensity as a function of small molecule concentration was fit to a one site binding model per equation 3: […]
as §2

Test [5] has as its target HCV RNA motif 5′GUG3′/3′C_C5′ (SL I and SL III). The test is described as above. Further details: species or system Hepatitis C virus.
From the text: as §1, §4, §2

Test [6] has as its target HCV RNA motif 5′CUG3′/3′G_C5′ (SL II). The test is described as above. Also noted: species or system Hepatitis C virus.
From the text: as §1, §4, §2

In test [7] the test system is panel of 22 kinases. Nature of the test: In vitro inhibition of a panel of kinases. The test is classed as biochemical. Particulars: 20 μM; panel of 22 kinases.

By IC50 is commonly meant the midpoint of a concentration-inhibition curve. On to `C[C@@]1(O)[C@H](O)[C@@H](CO)O[C@H]1n1cnc2c(N)ncnc21` [2′-C-methyladenosine, reference compound], for which the half-inhibitory concentration (IC50) in test [1] amounted to 4.5 ± 0.1 µM.
Take `CNc1nc(Nc2ccc(C3=NCCN3)cc2)nc(Nc2ccc(C3=NCCN3)cc2)n1` [Compound 2]: the “closing base pair preference (LOGOS)” value in test [2] was “potential preference for GU closing base pairs”.
Take `Cn1ccc2cc(-c3cc(NCc4nc5ccccc5[nH]4)nc(N)n3)ccc21` [Compound 3]: in test [3], the “nucleotide preference in position 1 (LOGOS)” value was “strong preference for G” and the “nucleotide preference in position 4 (LOGOS)” value is recorded as “G>U>>A or C”.
As for `COc1cc(Nc2cc(-c3ccc4c(ccn4C)c3)nc(N)n2)cc(OC)c1OC` [Compound 4], in test [3], the “nucleotide preference in position 1 (LOGOS)” value was “strong preference for G” and the “nucleotide preference in position 4 (LOGOS)” value is given as “G>C>>A or U”.
As to `Cn1ccc2cc(-c3cc(NCc4cccc(C(F)(F)F)c4)nc(N)n3)ccc21` [Compound 5], in test [3], the “nucleotide preference in position 4 (LOGOS)” value is “G>U>>A or C”.
Still for that read-out and setting: the same measure for `Cn1ccc2cc(-c3cc(NCc4cccnc4)nc(N)n3)ccc21` [Compound 6]: “G≈U>>A or C”.
As a reminder, the Kd is the equilibrium constant for the complex coming apart. Read a high Kd as lower affinity. In test [4], `O=C(Nc1cc(C2=NCCN2)cc(C2=NCCN2)c1)c1ccc(C(=O)Nc2cc(C3=NCCN3)cc(C3=NCCN3)c2)cc1` [Compound 9] registered a Kd of 1.3 ± 0.5 µM. The Affinity result in test [5] and in test [6] was “N.B” each time. Besides, the IC50 in test [1] is greater than 100 µM. Also, in test [7], the “kinases inhibited in the panel” value is reported as “No kinases were significantly inhibited”.
As to `O=C(Nc1cccc(C2=NCCN2)c1)c1ccc(-c2ccc(C(=O)Nc3cccc(C4=NCCN4)c3)cc2)cc1` [Compound 10], the Kd in test [4] came to 0.46 ± 0.14 µM; in test [5], 3.35 ± 0.77 µM; in test [6], 7.1 ± 4.2 µM. The IC50 in test [1] was 19 ± 2 µM. In test [7], the “kinases inhibited in the panel” value is reported as “No kinases were significantly inhibited”.
